Columns and labels:
[1] = system: SpNanC; assay: Substrate specificity of SpNanC with pNP-tagged α2–3-linked sialosides; format: biochemical, Streptococcus pneumoniae; details: sialoside as substrate of SpNanC
[2] = system: SpNanC; assay: Kinetics studies of SpNanC; format: biochemical, Streptococcus pneumoniae; details: substance as substrate of SpNanC
[3] = target: SpNanA (Streptococcus pneumoniae, UniProt P62575); assay: biochemical; details: for IC50: read-out: IC50 against SpNanA, Neu5Acα2–3GalβpNP as substrate; for inhibitory activity against SpNanA (in words): 0.1 mM inhibitor
[4] = target: SpNanB (Streptococcus pneumoniae serotype 4, UniProt Q54727); assay: Sialidase inhibition, Neu5Acα2–3GalβpNP as substrate; format: biochemical; details: 0.1 mM inhibitor
[5] = system: SpNanC; assay: as above; format: biochemical, Streptococcus pneumoniae; details: 0.1 mM inhibitor
[6] = target: PmST1 (Pasteurella multocida, UniProt Q15KI8); format: biochemical; details: 0.1 mM inhibitor
[7] = target: BiNanH2 (Bifidobacterium longum subsp. infantis, UniProt A0ACD7UU12); assay: Sialidase inhibition, Neu5Acα2–3GalβpNP as substrate; format: biochemical; details: for IC50: read-out: IC50 against BiNanH2, Neu5Acα2–3GalβpNP as substrate; for inhibitory activity against BiNanH2 (in words): 0.1 mM inhibitor
[8] = target: AuSialidase (Paenarthrobacter ureafaciens, UniProt Q5W7Q2); assay: as above; format: biochemical, Arthrobacter ureafaciens; details: for inhibitory activity against AuSialidase (in words): 0.1 mM inhibitor
[9] = target: CpNanH (Clostridium perfringens, UniProt P10481); format: biochemical
[10] = system: CpNanI; format: biochemical, Clostridium perfringens; details: 0.1 mM inhibitor
[11] = target: VcSialidase (Vibrio cholerae serotype O1, UniProt P0C6E9); assay: biochemical
[12] = target: human cytosolic sialidase hNEU2 (Homo sapiens, UniProt Q9Y3R4); assay: Sialidase inhibition, Neu5Acα2–3GalβpNP as substrate; format: biochemical; details: 0.1 mM inhibitor
[13] = system: human NEU1; details: cited from earlier work
[14] = system: viral sialidases; details: cited from earlier work
[15] = system: recombinant SpNanC; details: substance as substrate of previously reported recombinant SpNanC; cited from earlier work

Work on `O=C(CF)NC1C(O)CC(OC2C(O)C(CO)OC(Oc3ccc([N+](=O)[O-])cc3)C2O)(C(=O)O)OC1C(O)C(O)CO` (stereo not shown) [Neu5AcFα2–3GalβpNP] yielded a Percentage conversion [1] of 74.8 ± 3.2%.
Work on `[N-]=[N+]=NCC(=O)N[C@H]1[C@H]([C@H](O)[C@H](O)CO)O[C@@](O[C@H]2[C@@H](O)[C@@H](CO)O[C@@H](Oc3ccc([N+](=O)[O-])cc3)[C@@H]2O)(C(=O)O)C[C@@H]1O` [Neu5AcN3α2–3GalβpNP] yielded a Percentage conversion [1] of 87.9 ± 1.6%.
Work on `COCC(=O)NC1C(O)CC(OC2C(O)C(CO)OC(Oc3ccc([N+](=O)[O-])cc3)C2O)(C(=O)O)OC1C(O)C(O)CO` (stereo not shown) [Neu5AcOMeα2–3GalβpNP] yielded a Percentage conversion [1] of 81.8 ± 1.7%.
Work on `CC(=O)N[C@H]1[C@H]([C@H](O)[C@H](O)CO)OC(O[C@H]2[C@@H](O)[C@@H](CO)O[C@@H](Oc3ccc([N+](=O)[O-])cc3)[C@@H]2O)(C(=O)O)C[C@@H]1O` (stereo partly shown) [Neu5Acα2–3GalβpNP] yielded a Percentage conversion [1] of 85.1 ± 2.4%, a Km [2] of 2.7 ± 0.5 mM and a kcat [2] of 406.8 ± 39.0 s⁻¹.
Compound `O=C(CO)NC1C(O)CC(OC2C(O)C(CO)OC(Oc3ccc([N+](=O)[O-])cc3)C2O)(C(=O)O)OC1C(O)C(O)CF` (stereo not shown) [Neu5Gc9Fα2–3GalβpNP] has a Percentage conversion [1] of 72.3 ± 2.6%.
`[N-]=[N+]=NCC(O)C(O)C1OC(OC2C(O)C(CO)OC(Oc3ccc([N+](=O)[O-])cc3)C2O)(C(=O)O)CC(O)C1NC(=O)CO` (stereo not drawn) [Neu5Gc9N3α2–3GalβpNP] showed a Percentage conversion [1] of 89.5 ± 3.5%.
`COCC(O)C(O)C1OC(OC2C(O)C(CO)OC(Oc3ccc([N+](=O)[O-])cc3)C2O)(C(=O)O)CC(O)C1NC(=O)CO` (stereo not shown) [Neu5Gc9OMeα2–3GalβpNP] showed a Percentage conversion [1] of 75.0 ± 1.9%.
Work on `C[C@@H](O)[C@@H](O)[C@@H]1O[C@@](O[C@H]2[C@@H](O)[C@@H](CO)O[C@@H](Oc3ccc([N+](=O)[O-])cc3)[C@@H]2O)(C(=O)O)C[C@H](O)[C@H]1NC(=O)CO` [Neu5Gc9deoxyα2–3GalβpNP] yielded a Percentage conversion [1] of 85.5 ± 1.4%.
With `O=C(CO)NC1C(O)CC(OC2C(O)C(CO)OC(Oc3ccc([N+](=O)[O-])cc3)C2O)(C(=O)O)OC1C(O)C(O)CO` (stereo not shown) [Neu5Gcα2–3GalβpNP] the Percentage conversion [1] was 80.6 ± 6.7%.
With `CC(=O)N[C@H]1[C@H]([C@H](O)[C@H](O)CO)OC(C(=O)O)=C[C@@H]1O` [compound 6, 2,3-dehydro-2-deoxy-N-acetylneuraminic acid] the inhibition at 100 µM ([3]; read-out: inhibition against SpNanA) was > 50%, the “inhibitory activity against SpNanB (in words)” value [4] was “not effective inhibitors” and the “inhibitory activity against SpNanC (in words)” value [5] was “not effective inhibitors”. The “inhibitory activity against PmST1 (in words)” value [6] was “not effective inhibitors”, the inhibition at 100 µM ([7]; read-out: inhibition against BiNanH2) was > 50% and the inhibition at 100 µM ([8]; read-out: inhibition against AuSialidase) was > 50%. For the same compound, the “inhibitory activity against CpNanH (in words)” value [9] was “not effective inhibitors”, the “inhibition against CpNanI” value [10] was “more than 50%” and the inhibition at 100 µM ([11]; read-out: inhibition against VcSialidase) was > 50%.
For `O=C(CO)N[C@H]1[C@H]([C@H](O)[C@H](O)CO)OC(C(=O)O)=C[C@@H]1O` [compound 7, 2,3-dehydro-2-deoxy-N-glycolylneuraminic acid], the “inhibitory activity against SpNanB (in words)” value [4] was “not effective inhibitors”, the “inhibitory activity against SpNanC (in words)” value [5] was “not effective inhibitors” and the “inhibitory activity against PmST1 (in words)” value [6] was “not effective inhibitors”. The “inhibitory activity against CpNanH (in words)” value [9] was “not effective inhibitors”, the “inhibition against VcSialidase” value [11] was “more than 50%” and the “inhibition against hNEU2” value [12] was “more than 50%”.
In the case of `CC(=O)NC[C@@H](O)[C@@H](O)C1OC(C(=O)O)=CC(O)[C@H]1NC(C)=O` (stereo partly shown) [compound 9, Neu5Ac9NAc2en], the IC50 [3] is reported as 11 ± 0.2 µM, the “inhibitory activity against SpNanB (in words)” value [4] is reported as “not effective inhibitors” and the “inhibitory activity against SpNanC (in words)” value [5] is reported as “not effective inhibitors”. The “inhibitory activity against PmST1 (in words)” value [6] was “not effective inhibitors”, the IC50 [7] was 33 ± 1 µM and the “inhibitory activity against AuSialidase (in words)” value [8] was “lowered the inhibitory activity”. The “inhibitory activity against CpNanH (in words)” value [9] was “not effective inhibitors”, the “inhibitory activity against VcSialidase (in words)” value [11] was “lowered the inhibitory activity” and the “inhibitory activity against hNEU2 (in words)” value [12] was “lowered the inhibitory activity”.
With `CC(=O)N[C@@H]1C(O)C=C(C(=O)O)OC1C[C@H](O)CO` (stereo partly shown) [compound 10, Neu5Ac7deoxy2en] the “inhibitory activity against SpNanA (in words)” value [3] was “selective inhibitory activity”, the IC50 [3] was 10.7 ± 0.4 µM and the “inhibitory activity against SpNanB (in words)” value [4] was “not effective inhibitors”. The “inhibitory activity against SpNanC (in words)” value [5] was “not effective inhibitors”, the “inhibitory activity against PmST1 (in words)” value [6] was “not effective inhibitors” and the “inhibitory activity against BiNanH2 (in words)” value [7] was “not an effective inhibitor”. For the same compound, the “inhibitory activity against AuSialidase (in words)” value [8] was “selective inhibitory activity”, the IC50 ([8]; read-out: IC50 against AuSialidase, Neu5Acα2–3GalβpNP as substrate) was 17 ± 1 µM and the “inhibitory activity against CpNanH (in words)” value [9] was “not effective inhibitors”. The “inhibitory activity against CpNanI (in words)” value [10] was “selective inhibitory activity”, the “inhibitory activity against VcSialidase (in words)” value [11] was “not an effective inhibitor” and the “inhibitory activity against hNEU2 (in words)” value [12] was “but not hNEU2”.
With `CCCCC(=O)NC[C@@H](O)[C@@H](O)[C@@H]1OC(C(=O)O)=C[C@H](O)[C@H]1NC(C)=O` [compound 12, Neu5Ac9NPent2en] the IC50 [3] was 10.5 ± 0.5 µM, the “inhibitory activity against SpNanB (in words)” value [4] was “not effective inhibitors” and the “inhibitory activity against SpNanC (in words)” value [5] was “not effective inhibitors”. The “inhibitory activity against PmST1 (in words)” value [6] was “not effective inhibitors”, the IC50 [7] was 34 ± 2 µM and the “inhibitory activity against AuSialidase (in words)” value [8] was “lowered the inhibitory activity”. The “inhibitory activity against CpNanH (in words)” value [9] was “not effective inhibitors”, the “inhibitory activity against VcSialidase (in words)” value [11] was “lowered the inhibitory activity” and the “inhibitory activity against hNEU2 (in words)” value [12] was “lowered the inhibitory activity”. The “selectivity against human NEU1” value [13] was “improved selectivity”.
For `CC(=O)N[C@H]1[C@H]([C@H](O)[C@H](O)CNC(=O)C2CC2)OC(C(=O)O)=C[C@@H]1O` [compound 13, Neu5Ac9NCyclopro2en], the IC50 [3] was 6.8 ± 0.2 µM, the “inhibitory activity against SpNanB (in words)” value [4] was “not effective inhibitors” and the “inhibitory activity against SpNanC (in words)” value [5] was “not effective inhibitors”. The “inhibitory activity against PmST1 (in words)” value [6] was “not effective inhibitors”, the IC50 [7] was 29 ± 2 µM and the “inhibitory activity against AuSialidase (in words)” value [8] was “lowered the inhibitory activity”. The “inhibitory activity against CpNanH (in words)” value [9] was “not effective inhibitors”, the “inhibitory activity against VcSialidase (in words)” value [11] was “lowered the inhibitory activity” and the “inhibitory activity against hNEU2 (in words)” value [12] was “lowered the inhibitory activity”. For the same compound, the “selectivity against viral sialidases” value [14] was “higher selectivity”.
With `O=C(Cc1ccccc1)N[C@H]1[C@H]([C@H](O)[C@H](O)CO)OC(C(=O)O)=C[C@@H]1O` [compound 15, Neu5PhAc2en] the “inhibitory activity against SpNanA (in words)” value [3] was “not any bacterial sialidases tested”, the “inhibitory activity against SpNanB (in words)” value [4] was “not effective inhibitors” and the “inhibitory activity against SpNanC (in words)” value [5] was “not effective inhibitors”. For the same compound, the “inhibitory activity against PmST1 (in words)” value [6] was “not effective inhibitors”, the “inhibitory activity against BiNanH2 (in words)” value [7] was “not any bacterial sialidases tested” and the “inhibitory activity against AuSialidase (in words)” value [8] was “not any bacterial sialidases tested”. For the same compound, the “inhibitory activity against CpNanH (in words)” value [9] was “not effective inhibitors”, the “inhibitory activity against CpNanI (in words)” value [10] was “not any bacterial sialidases tested” and the “inhibitory activity against VcSialidase (in words)” value [11] was “not any bacterial sialidases tested”. For the same compound, the “inhibitory activity against hNEU2 (in words)” value [12] was “retained inhibitory activity”.
In the case of `CC(=O)N[C@H]1[C@H]([C@H](O)[C@H](O)CO)O[C@@](O[C@H]2[C@@H](O)[C@@H](CO)O[C@@H](O[C@H]3[C@H](O)[C@@H](O)C(O)O[C@@H]3CO)[C@@H]2O)(C(=O)O)C[C@@H]1O` (stereo partly drawn) [α2–3-sialyllactose], the Km [15] is listed as 1.08 ± 0.35 mM and the kcat [15] is listed as 0.313 ± 0.052 s⁻¹.

From publication PMC5920526 (ACS catalysis, 2017)
